Source: US20030199671A1, “Binding molecules for Fc-region polypeptides” (priority 2001, published 2003)
Read-outs that look alike come from different tables or passages of the source. Positions of bridges follow the written chain, without caps; N, C: chain ends. Residues, ends and D or L forms follow the SMILES beside them.

Key:
Assay in all cases: Fluorescence anisotropy binding, Oregon Green labeled peptide
human plasma IgG1 = biological target: T1, human plasma IgG1 (Homo sapiens, UniProt P01857)
T1 construct: the individual human plasma IgG isoforms: IgG1, IgG2, IgG3, or IgG4; purchased Calbiochem; host or cells: human plasma
T1 sequence (P01857 1-330 isoform P01857-1): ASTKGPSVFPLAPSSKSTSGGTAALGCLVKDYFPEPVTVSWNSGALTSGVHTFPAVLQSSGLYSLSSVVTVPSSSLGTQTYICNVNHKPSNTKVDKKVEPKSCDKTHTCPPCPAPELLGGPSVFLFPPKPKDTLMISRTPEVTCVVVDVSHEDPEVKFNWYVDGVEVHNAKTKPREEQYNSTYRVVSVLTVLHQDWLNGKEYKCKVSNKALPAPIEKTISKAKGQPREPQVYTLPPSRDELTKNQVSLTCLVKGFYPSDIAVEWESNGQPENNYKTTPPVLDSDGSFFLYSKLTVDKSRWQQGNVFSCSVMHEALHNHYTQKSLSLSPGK
Description: (§1) Peptides were synthesized by BACHEM and then Oregon Green labeled and HPLC purified. Binding studies were performed using human plasma IgG isoforms: IgG1, IgG2, IgG3, and IgG4, obtained from Calbiochem.
(§2) Binding studies were carried out at either pH 4.0, 7.5, or 9.5, with or without salt in the following buffers:
(§3) 2) 10 mM Sodium Citrate, 500 mM Sodium Chloride, 0.01% Tween 20, pH 4.0;
(§4) 4) […], 500 mM Sodium Chloride, 0.01% Tween 20, pH 7.5;
(§5) 5) 10 mM Sodium Bicarbonate, 0.01% Tween 20, pH 9.5;
(§6) 6) 10 mM Sodium Bicarbonate, 500 mM Sodium Chloride, 0.01% Tween 20, pH 9.5; or […]

human plasma IgG4 = biological target: T2, human plasma IgG4 (Homo sapiens, UniProt P01861)
T2 construct: the individual human plasma IgG isoforms: IgG1, IgG2, IgG3, or IgG4; purchased Calbiochem; host or cells: human plasma
T2 sequence (P01861 1-327 isoform P01861-1): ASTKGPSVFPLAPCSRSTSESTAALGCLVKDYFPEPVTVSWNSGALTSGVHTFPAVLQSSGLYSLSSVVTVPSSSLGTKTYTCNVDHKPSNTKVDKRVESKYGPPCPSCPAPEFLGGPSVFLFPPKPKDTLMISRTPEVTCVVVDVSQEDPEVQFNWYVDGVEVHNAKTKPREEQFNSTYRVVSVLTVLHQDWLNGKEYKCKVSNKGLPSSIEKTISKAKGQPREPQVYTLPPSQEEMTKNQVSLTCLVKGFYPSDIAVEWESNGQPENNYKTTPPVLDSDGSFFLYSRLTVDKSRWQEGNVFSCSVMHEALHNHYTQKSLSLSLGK
Description: as §1, §2, §3, §4, §5, §6

human plasma IgG3 = biological target: T3, human plasma IgG3 (Homo sapiens, UniProt P01860)
T3 construct: the individual human plasma IgG isoforms: IgG1, IgG2, IgG3, or IgG4; purchased Calbiochem; host or cells: human plasma
T3 sequence (P01860 1-377 isoform P01860-1): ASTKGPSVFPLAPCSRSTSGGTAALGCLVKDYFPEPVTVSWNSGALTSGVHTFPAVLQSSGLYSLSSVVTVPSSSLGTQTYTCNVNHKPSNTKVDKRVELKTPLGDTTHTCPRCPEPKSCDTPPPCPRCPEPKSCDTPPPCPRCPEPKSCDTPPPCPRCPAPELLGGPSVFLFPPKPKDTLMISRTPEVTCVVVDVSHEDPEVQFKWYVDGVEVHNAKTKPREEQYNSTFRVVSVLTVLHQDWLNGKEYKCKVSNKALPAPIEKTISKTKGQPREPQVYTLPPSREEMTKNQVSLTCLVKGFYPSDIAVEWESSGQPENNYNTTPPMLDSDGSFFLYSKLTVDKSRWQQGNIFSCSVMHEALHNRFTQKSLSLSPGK
Description: as §1, §2, §3, §4, §5, §6

human plasma IgG2 = biological target: T4, human plasma IgG2 (Homo sapiens, UniProt P01859)
T4 construct: the individual human plasma IgG isoforms: IgG1, IgG2, IgG3, or IgG4; purchased Calbiochem; host or cells: human plasma
T4 sequence (P01859 1-326 isoform P01859-1): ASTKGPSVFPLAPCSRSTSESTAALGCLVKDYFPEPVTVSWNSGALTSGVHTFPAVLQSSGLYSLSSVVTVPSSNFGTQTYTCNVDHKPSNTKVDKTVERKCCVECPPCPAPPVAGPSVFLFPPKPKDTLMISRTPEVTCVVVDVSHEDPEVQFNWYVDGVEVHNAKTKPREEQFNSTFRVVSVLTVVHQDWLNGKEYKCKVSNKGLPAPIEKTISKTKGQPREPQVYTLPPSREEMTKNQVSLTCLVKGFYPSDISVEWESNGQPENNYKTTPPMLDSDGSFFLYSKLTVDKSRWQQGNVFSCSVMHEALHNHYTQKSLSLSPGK
Description: as §1, §2, §3, §4, §5, §6

[1] = 10 nM Tris-HCl, 500 mM Sodium Chloride, pH 7.5, read-out: KD (μM) IgG1 pH 7.5 + salt
[2] = 10 mM Sodium Bicarbonate, 500 mM Sodium Chloride, pH 9.5, read-out: KD (μM) IgG1 pH 9.5 + salt
[3] = 10 mM Sodium Bicarbonate, pH 9.5, read-out: KD (μM) IgG1 pH 9.5 − salt
[4] = 10 mM Sodium Citrate, 500 mM Sodium Chloride, pH 4.0, read-out: KD (μM) IgG1 pH 4.0 + salt
[5] = 10 mM Sodium Citrate, pH 4.0, read-out: KD (μM) IgG1 pH 4.0 − salt
[6] = 10 mM Tris-HCl, pH 7.5, read-out: KD (μM) IgG1 pH 7.5 − salt
[7] = TBS, 0.01% Tween 20, pH 7.5, read-out: KD (μM) IgG1 TBS
[8] = 10 nM Tris-HCl, 500 mM Sodium Chloride, pH 7.5, read-out: KD (μM) IgG4 pH 7.5 + salt
[9] = 10 mM Sodium Bicarbonate, 500 mM Sodium Chloride, pH 9.5, read-out: KD (μM) IgG4 pH 9.5 + salt
[10] = 10 mM Sodium Bicarbonate, pH 9.5, read-out: KD (μM) IgG4 pH 9.5 − salt
[11] = 10 mM Sodium Citrate, 500 mM Sodium Chloride, pH 4.0, read-out: KD (μM) IgG4 pH 4.0 + salt
[12] = 10 mM Sodium Citrate, pH 4.0, read-out: KD (μM) IgG4 pH 4.0 − salt
[13] = 10 mM Tris-HCl, pH 7.5, read-out: KD (μM) IgG4 pH 7.5 − salt
[14] = TBS, 0.01% Tween 20, pH 7.5, read-out: KD (μM) IgG4 TBS
[15] = 10 nM Tris-HCl, 500 mM Sodium Chloride, pH 7.5, read-out: KD (μM) IgG3 pH 7.5 + salt
[16] = 10 mM Sodium Bicarbonate, 500 mM Sodium Chloride, pH 9.5, read-out: KD (μM) IgG3 pH 9.5 + salt
[17] = 10 mM Sodium Bicarbonate, pH 9.5, read-out: KD (μM) IgG3 pH 9.5 − salt
[18] = 10 mM Sodium Citrate, 500 mM Sodium Chloride, pH 4.0, read-out: KD (μM) IgG3 pH 4.0 + salt
[19] = 10 mM Sodium Citrate, pH 4.0, read-out: KD (μM) IgG3 pH 4.0 − salt
[20] = 10 mM Tris-HCl, pH 7.5, read-out: KD (μM) IgG3 pH 7.5 − salt
[21] = TBS, 0.01% Tween 20, pH 7.5, read-out: KD (μM) IgG3 TBS
[22] = 10 nM Tris-HCl, 500 mM Sodium Chloride, pH 7.5, read-out: KD (μM) IgG2 pH 7.5 + salt
[23] = 10 mM Sodium Bicarbonate, 500 mM Sodium Chloride, pH 9.5, read-out: KD (μM) IgG2 pH 9.5 + salt
[24] = 10 mM Sodium Bicarbonate, pH 9.5, read-out: KD (μM) IgG2 pH 9.5 − salt
[25] = 10 mM Sodium Citrate, 500 mM Sodium Chloride, pH 4.0, read-out: KD (μM) IgG2 pH 4.0 + salt
[26] = 10 mM Sodium Citrate, pH 4.0, read-out: KD (μM) IgG2 pH 4.0 − salt
[27] = 10 mM Tris-HCl, pH 7.5, read-out: KD (μM) IgG2 pH 7.5 − salt
[28] = TBS, 0.01% Tween 20, pH 7.5, read-out: KD (μM) IgG2 TBS

Kd (human plasma IgG1; [1]) [µM] | Kd (human plasma IgG1; [2]) [µM] | Kd (human plasma IgG1; [3]) [µM] | Kd (human plasma IgG1; [4]) [µM] | Kd (human plasma IgG1; [5]) [µM] | Kd (human plasma IgG1; [6]) [µM] | Kd (human plasma IgG1; [7]) [µM] | Kd (human plasma IgG4; [8]) [µM] | Kd (human plasma IgG4; [9]) [µM] | Kd (human plasma IgG4; [10]) [µM] | Kd (human plasma IgG4; [11]) [µM] | Kd (human plasma IgG4; [12]) [µM] | Kd (human plasma IgG4; [13]) [µM] | Kd (human plasma IgG4; [14]) [µM] | Kd (human plasma IgG3; [15]) [µM] | Kd (human plasma IgG3; [16]) [µM] | Kd (human plasma IgG3; [17]) [µM] | Kd (human plasma IgG3; [18]) [µM] | Kd (human plasma IgG3; [19]) [µM] | Kd (human plasma IgG3; [20]) [µM] | Structure (SMILES) | other results
> 10 | > 10 | > 10 | > 10 | > 10 | > 10 | > 10 | > 10 | > 10 | > 10 | > 10 | > 10 | > 10 | > 10 | > 10 | > 10 | > 10 | ~2 | ~2 | > 10 | CC(=O)N[C@@H](C)C(=O)NCC(=O)N1CCC[C@H]1C(=O)N[C@@H](Cc1c[nH]cn1)C(=O)N[C@@H](CC(N)=O)C(=O)N[C@H]1CSSC[C@@H](C(=O)N[C@@H](CCCCN)C(=O)N[C@@H](Cc2c[nH]c3ccccc23)C(=O)N[C@@H](Cc2ccccc2)C(=O)N2CCC[C@H]2C(=O)NCC(=O)N2CCC[C@H]2C(=O)N[C@@H](CCC(=O)O)C(=O)NCC(=O)NCC(=O)NCC(=O)N[C@@H](CCCCN)C(N)=O)NC(=O)[C@H](Cc2ccc(O)cc2)NC(=O)[C@H](Cc2c[nH]c3ccccc23)NC(=O)[C@H](Cc2ccc(O)cc2)NC(=O)[C@H](Cc2c[nH]cn2)NC(=O)[C@H](CC(=O)O)NC(=O)[C@H](CC(=O)O)NC1=O [DX389] (Ac-AGPHNCDDHYWYCKWFPGPEGGGK-NH2; disulfide 6-13 (inferred)) | Kd (human plasma IgG3; [21]): > 10 µM; Kd (human plasma IgG2; [22]): > 10 µM; Kd (human plasma IgG2; [23]): > 10 µM; Kd (human plasma IgG2; [24]): > 10 µM; Kd (human plasma IgG2; [25]): > 10 µM; Kd (human plasma IgG2; [26]): > 10 µM; Kd (human plasma IgG2; [27]): > 10 µM; Kd (human plasma IgG2; [28]): > 10 µM
> 10 | > 10 | > 10 | > 10 | > 10 | > 10 | > 10 | > 10 | > 10 | > 10 | > 10 | > 10 | > 10 | > 10 | > 10 | > 10 | > 10 | 0.3 to 0.6 | 0.3 to 0.6 | > 10 | CC[C@H](C)[C@@H]1NC(=O)[C@H](CCCCN)NC(=O)[C@@H](NC(=O)[C@H](Cc2c[nH]c3ccccc23)NC(=O)[C@H](Cc2ccc(O)cc2)NC(=O)[C@H](CO)NC(=O)CNC(=O)[C@H](C)NC(C)=O)CSSC[C@@H](C(=O)N2CCC[C@H]2C(=O)N[C@@H](CCC(N)=O)C(=O)N[C@@H](CO)C(=O)N2CCC[C@H]2C(=O)NCC(=O)N2CCC[C@H]2C(=O)N[C@@H](CCC(=O)O)C(=O)NCC(=O)NCC(=O)NCC(=O)N[C@@H](CCCCN)C(N)=O)NC(=O)[C@H](C(C)C)NC(=O)[C@H](CC(=O)O)NC(=O)[C@H](Cc2c[nH]c3ccccc23)NC1=O [DX392] (Ac-AGSYWCKIWDVCPQSPGPEGGGK-NH2; disulfide 6-12 (inferred)) | Kd (human plasma IgG3; [21]): > 10 µM; Kd (human plasma IgG2; [22]): > 10 µM; Kd (human plasma IgG2; [23]): > 10 µM; Kd (human plasma IgG2; [24]): > 10 µM; Kd (human plasma IgG2; [25]): > 10 µM; Kd (human plasma IgG2; [26]): > 10 µM; Kd (human plasma IgG2; [27]): > 10 µM; Kd (human plasma IgG2; [28]): > 10 µM
